Assay results reported in PubChem BioAssay AID1208 (EPA DSSTox, 2008).
Calls of active or inactive are those of the source.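 The calls were made as follows: active = at least one rat sex group has a carcinogenic potency value and tumor site recorded; inconclusive = only rat studies were judged inadequate by the national testing program; inactive = no potency or tumor site, with negative rat experiments.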

System: rat chronic carcinogenicity bioassay, TD50
Experiment: DSSTox (CPDBAS) Carcinogenic Potency Database Summary Rat Bioassay Results
Conditions: for outcome: TD50_Rat_Note: no positive results; for Potency: stronger effect = lower value
Method in brief: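 Chronic long-term rat cancer bioassays from literature and NCI/NTP, taking the most positive result per sex. TD50 in mmol converted to a 1–100 Activity Score from log10(1/TD50). Mixtures lacking TD50 scored 50.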

[1] = TargetSites_Rat_Female: no positive results
[2] = TD50_Rat_Note: TD50 is harmonic mean of more than one positive test, TargetSites_Rat_Female: liver, mammary gland

Row | SMILES | outcome [1] | further results
1 | O=C(c1ccccc1)C(O)c1ccccc1 (stereo not drawn) | inactive; no positive results | 
2 | Cc1ncc([N+](=O)[O-])n1CCO |  | Potency [2]: 542 mg/kg/day
3 | O=[N+]([O-])c1ccc(Cl)c([N+](=O)[O-])c1 |  | outcome: inactive; no positive results
4 | O=NN1C[C@H](O)C[C@H]1C(=O)O | inactive; no positive results | 
5 | ClCCl |  | Potency (TD50_Rat_Note: TD50 is harmonic mean of more than one positive test, TargetSites_Rat_Female: mammary gland): 724 mg/kg/day
6 | c1ccoc1 |  | Potency (TD50_Rat_Note: TD50 is harmonic mean of more than one positive test, TargetSites_Rat_Female: hematopoietic system, liver): 0.396 mg/kg/day
7 | NNc1nc(-c2ccccc2)cs1 | inactive | 
8 | Clc1ccc(Sc2cc(Cl)c(Cl)cc2Cl)cc1 | inactive; no positive results | 
9 | Cc1ccc(OP(=O)(Oc2ccc(C)cc2)Oc2ccc(C)cc2)cc1 | inactive; no positive results | 
10 | O.O.O.O.O.O.O.O.O=S(=O)([O-])[O-].O=S(=O)([O-])[O-].O=S(=O)([O-])[O-].[Cd+2].[Cd+2].[Cd+2] |  | outcome: inactive; no positive results
11 | COc1ccc(C(c2ccc(OC)cc2)C(Cl)(Cl)Cl)cc1 | inactive; no positive results | 
12 | O=S(=O)(O)NC1CCCCC1 |  | outcome (TargetSites_Rat_BothSexes: no positive results): inactive
13 | COc1cc(-c2ccc(N=Nc3c(S(=O)(=O)O)cc4cc(S(=O)(=O)O)cc(N)c4c3O)c(OC)c2)ccc1N=Nc1c(S(=O)(=O)O)cc2cc(S(=O)(=O)O)cc(N)c2c1O |  | Potency (TD50_Rat_Note: TD50 is harmonic mean of more than one positive test, TargetSites_Rat_Female: clitoral gland, ear Zymbals gland, hematopoietic system, large intestine, liver, oral cavity, skin, small intestine, ute): 27.5 mg/kg/day
14 | ClC(Cl)(Cl)Cl |  | Potency [2]: 27.8 mg/kg/day
15 | CCC1C(=O)OCC1Cc1cncn1C (stereo not drawn) | inactive; no positive results | 
16 | CC1=C(C(=O)OCCN(Cc2ccccc2)c2ccccc2)C(c2cccc([N+](=O)[O-])c2)C(P2(=O)OCC(C)(C)CO2)=C(C)N1 (stereo not drawn) | inactive; no positive results | 
17 | CN(C)C(=O)Nc1cccc(C(F)(F)F)c1 | inactive; no positive results | 
18 | O=S(=O)(c1ccc(Cl)cc1)c1ccc(Cl)cc1 | inactive; no positive results | 
19 | Cc1cnc(NC(=O)C2=C(O)c3ccccc3S(=O)(=O)N2C)s1 | inactive; no positive results | 
20 | CC(=O)c1ccc(S(=O)(=O)NC(=O)NC2CCCCC2)cc1 | inactive; no positive results | 
21 | ClC(Cl)C(Cl)(Cl)Cl | inactive; no positive results | 
22 | CN(N=O)C(=O)c1ccccc1 |  | Potency (TD50_Rat_Note: TD50 is harmonic mean of more than one positive test, TargetSites_Rat_Female: all tumor bearing animals): 3.23 mg/kg/day

Row | SMILES | outcome [1] | further results
23 | C#CC(OC(N)=O)(c1ccccc1)c1ccc(Cl)cc1 (stereo not drawn) |  | Potency: 8.78 mg/kg/day
24 | Cc1cccc(Nc2cc(Cl)nc(SCC(=O)O)n2)c1C |  | Potency (TD50_Rat_Note: TD50 is harmonic mean of more than one positive test, harmonic mean of TD50 includes a value for upper 99% confidence li): 4.36 mg/kg/day
25 | O=[N+]([O-])c1cccc2ccccc12 | inactive; no positive results | 
26 | CCCCCC(N)=O | inactive; no positive results | 
27 | CC(=O)Nc1ccc(C(=O)CCl)cc1 | inactive; no positive results | 
28 | CN(C)CCN(Cc1ccsc1)c1ccccn1 | inactive; no positive results | 
29 | O=CCCCC=O | inactive; no positive results | 
30 | CCNC(=O)Nc1ncc([N+](=O)[O-])s1 |  | Potency (TargetSites_Rat_Female: mammary gland): 131 mg/kg/day
31 | CCCCC(CC)CO (stereo not drawn) | inactive; no positive results | 
32 | CC1(C)S[C@@H]2[C@H](NC(=O)COc3ccccc3)C(=O)N2[C@H]1C(=O)O | inactive; no positive results | 
33 | C[C@@H]1Cc2c(Cl)cc(C(=O)N[C@@H](Cc3ccccc3)C(=O)O)c(O)c2C(=O)O1 |  | Potency (TD50_Rat_Note: TD50 is harmonic mean of more than one positive test, TargetSites_Rat_Female: kidney, mammary gland): 0.136 mg/kg/day
34 | Cc1cc(Cl)ccc1N | inactive; no positive results | 
35 | COC(=O)c1ccc(C(=O)OC)cc1 | inactive; no positive results | 
36 | S=C(SN1CCOCC1)N1CCOCC1 |  | Potency (TD50_Rat_Note: TD50 is harmonic mean of more than one positive test, TargetSites_Rat_Female: kidney, urinary bladder): 90.8 mg/kg/day
37 | CN(C)C=O | inactive; no positive results | 
38 | ClCC(Br)CBr (stereo not drawn) |  | Potency (TD50_Rat_Note: TD50 is harmonic mean of more than one positive test, TargetSites_Rat_Female: adrenal gland, mammary gland, nasal cavity, oral cavity, stomach): 0.259 mg/kg/day
39 | COc1ccc(O)c(C(C)(C)C)c1 |  | Potency (TD50_Rat_Note: TD50 is harmonic mean of more than one positive test, harmonic mean of TD50 includes a value for upper 99% confidence li, TargetSites_Rat_Female: stomach): 405 mg/kg/day
40 | CCCNC(=O)NS(=O)(=O)c1ccc(Cl)cc1 | inactive; no positive results | 
41 | C=CC1=C(C)C2=CC3=NC(=C(CC(=O)[O-])C4=NC(=C(C)C4=C([O-])[O-])C=c4[n-]c(c(C)c4CC)=CC1=N2)[C@@H](CCC(=O)[O-])[C@@H]3C.[Cu+2].[Na+].[Na+].[Na+] | inactive; no positive results | 
42 | Cc1cccc(C)c1NC(=O)CN1CCCC1=O | inactive; no positive results | 
43 | CCCCN(CCCCO)N=O |  | Potency (TD50_Rat_Note: TD50 is harmonic mean of more than one positive test, harmonic mean of TD50 includes a value for upper 99% confidence li, TargetSites_Rat_Female: urinary bladder): 0.457 mg/kg/day
